The record followed here is patent US9540358B2, “Tricyclic compounds as anticancer agents” (ICAHN SCHOOL OF MEDICINE AT MOUNT SINAI, priority 2011, dated 2017).

The structures appear in SMILES notation. pIC50: −log10 of the molar value.

The term pIC50 denotes the IC50 on a negative log10 scale, so that one unit is a factor of ten. Higher therefore signals a small IC50.

For the first assay, the system named is H1650 lung cancer cells. The assay is described as follows: Cell viability assay (MTT, IC50 determination). Type of assay: cell-based. The settings on record: 48 hours after drug treatment, MTT. The procedure:
89(22): p. […] H1650 lung cancer cells were plated at 150,000 cells per well in a 12 well plate. Twenty-four hours after plating, cells were treated as described with increasing concentrations of drug and control. Forty-eight hours after drug treatment, cells were treated with 100 μL of 3-(4,5-Dimethylthiazol-2-yl)-2,5-diphenyltetrazolium bromide (MTT) and incubated for 2 hours at 37 C. The MTT solution was subsequently replaced with 300 μL of n-propyl alcohol and re-aliquoted to a 96 well plates. Spectrophotometric analysis of each solution was performed using a 96 well plate reader at 600 nm in triplicate.
On to `O=S(=O)(NCCCN1c2ccccc2CCc2ccccc21)c1cnc(Cl)c(Br)c1` [Example 81, 5-bromo-6-chloro-N-(3-(10,11-dihydro-5H-dibenzo[V]azepin-5-yl)propyl)pyridine-3-sulfonamide], for which the “IC50 (Cell Viability Data)” value was “INACTIVE”. With `CC(=O)Nc1nc(C)c(S(=O)(=O)NCCCN2c3ccccc3CCc3ccccc32)s1` [Example 82, N-(5-(N-(3-(10,11-dihydro-5H-dibenzo[b,f]azepin-5-yl)propyl)sulfamoyl)-4-methylthiazol-2-yl)acetamide], the “IC50 (Cell Viability Data)” value was “INACTIVE”.

As to `COC(=O)NCCN1c2ccccc2Sc2ccc(Cl)cc21` [Example 83], the “IC50 (Cell Viability Data)” value is listed as “INACTIVE”. The same measure, in the same setting: the entry for `O=S(=O)(NCCCN1c2ccccc2CCc2ccc(Cl)cc21)c1ccccc1OC(F)(F)F` [Example 86] is “INACTIVE”.

Still in this assay, the particulars now being: Homo sapiens, NCI-H1650, 48 hours after drug treatment, MTT.
`O=S(=O)(NCCCN1c2ccc(Cl)cc2CCc2cc(Cl)ccc21)c1ccc(Cl)cc1` [Example 52, 4-Chloro-N-(3-(2,8-dichloro-10,11-dihydro-5H-dibenzo[b,f]azepin-5-yl)propyl)benzenesulfonamide]: the pIC50 is about 5.00. Still for that read-out and setting: the figure for `O=S(=O)(NCCCN1c2ccc(Cl)cc2CCc2cc(Cl)ccc21)c1ccc(OC(F)(F)F)cc1` [Example 53, 4-Trifluoromethoxy-N-(3-(2,8-dichloro-10,11-dihydro-5H-dibenzo[b,f]azepin-5-yl)propyl)benzenesulfonamide] is about 5.00. The same measure, in the same setting: the figure for `O=S(=O)(NCCCN1c2ccccc2CCc2ccc(Cl)cc21)c1cccc(OC(F)(F)F)c1` [Example 54, N-(3-(3-chloro-10,11-dihydro-5H-dibenzo[b,f]azepin-5-yl)propyl)-3-(trifluoromethoxy)benzenesulfonamide] is about 4.82.

Molecule `O=S(=O)(NCCNC1c2ccccc2CCc2ccccc21)c1ccc(Cl)cc1` [Example 55, 4-Chloro-N-(2-((10,11-dihydro-5H-dibenzo[a,d][7]annulen-5-yl)amino)ethyl)benzenesulfonamide] had a pIC50 of about 4.60. For `O=S(=O)(NCCNC1c2ccccc2CCc2ccccc21)c1ccc(OC(F)(F)F)cc1` [Example 56, 4-Trifluoromethoxy-N-(2-((10,11-dihydro-5H-dibenzo[a,d][7]annulen-5-yl)amino)ethyl)benzenesulfonamide], the pIC50 is about 4.60. The same measure, in the same setting: the figure for `O=S(=O)(NCC(O)CN1c2ccccc2CCc2ccc(Cl)cc21)c1ccc(Cl)cc1` (stereo not shown) [Example 57, 4-Chloro-N-(3-(3-chloro-10,11-dihydro-5H-dibenzo[b,f]azepin-5-yl)-2-hydroxypropyl)benzenesulfonamide] is about 5.00; for `O=S(=O)(NCC(O)CN1c2ccccc2CCc2ccc(Cl)cc21)c1ccc(OC(F)(F)F)cc1` (stereo not shown) [Example 58, 4-Trifluoromethoxy-N-(3-(3-chloro-10,11-dihydro-5H-dibenzo[b,f]azepin-5-yl)-2-hydroxypropyl)benzenesulfonamide] it is about 5.30; for `O=S(=O)(NCC(O)CN1c2ccccc2CCc2ccccc21)c1ccc(Cl)cc1` (stereo not shown) [Example 59, 4-Chloro-N-(3-(10,11-dihydro-5H-dibenzo[b,f]azepin-5-yl)-2-hydroxypropyl)benzenesulfonamide] it is about 4.60. In the case of `O=S(=O)(NCCCN1c2ccccc2CCc2ccc(Cl)cc21)c1cc(Cl)c(Cl)s1` [Example 61, 4,5-dichloro-N-(3-(3-chloro-10,11-dihydro-5H-dibenzo[b,f]azepin-5-yl)propyl)thiophene-2-sulfonamide], the pIC50 was about 4.70. Same read-out and setting: the figure for `O=S(=O)(NCCCN1c2ccccc2CCc2ccc(Cl)cc21)c1cc(Cl)sc1Cl` [Example 62, 2,5-dichloro-N-(3-(3-chloro-10,11-dihydro-5H-dibenzo[b,f]azepin-5-yl)propyl)thiophene-3-sulfonamide] is about 4.60; for `O=C(CNS(=O)(=O)c1ccc(OC(F)(F)F)cc1)CN1c2ccccc2CCc2ccccc21` [Example 64, N-(3-(10,11-dihydro-5H-dibenzo[b,f]azepin-5-yl)-2-oxopropyl)-4-(trifluoromethoxy)benzenesulfonamide] it is about 4.46; for `N#CC(CNS(=O)(=O)c1ccc(OC(F)(F)F)cc1)CN1c2ccccc2CCc2ccccc21` (stereo not shown) [Example 65, N-(2-cyano-3-(10,11-dihydro-5H-dibenzo[b,f]azepin-5-yl)propyl)-4-(trifluoromethoxy)benzenesulfonamide] it is about 4.82. On the same count and under the same terms, the figure for `CC(CNS(=O)(=O)c1ccc(OC(F)(F)F)cc1)CN1c2ccccc2CCc2ccccc21` (stereo not shown) [Example 67, N-(3-(10,11-dihydro-5H-dibenzo[b,f]azepin-5-yl)-2-methylpropyl)-4-(trifluoromethoxy)benzenesulfonamide] is about 4.70; for `CC(CNS(=O)(=O)c1ccc(Cl)cc1)CN1c2ccccc2CCc2ccccc21` (stereo not shown) [Example 68, 4-Chloro-N-(3-(10,11-dihydro-5H-dibenzo[b,f]azepin-5-yl)-2-methylpropyl)benzenesulfonamide] it is about 4.70.

Turning to `O=S(=O)(NCCCN1c2ccccc2CCc2cccc(Cl)c21)c1ccc(OC(F)(F)F)cc1` [Example 69, N-(3-(4-chloro-10,11-dihydro-5H-dibenzo[b,f]azepin-5-yl)propyl)-4-(trifluoromethoxy)benzenesulfonamide], the pIC50 was about 4.70. Same read-out and setting: the figure for `O=S(=O)(NCCCN1c2ccccc2CCc2cccc(Cl)c21)c1ccc(Cl)cc1` [Example 70, 4-Chloro-N-(3-(4-chloro-10,11-dihydro-5H-dibenzo[b,f]azepin-5-yl)propyl)benzenesulfonamide] is about 4.70; for `N#Cc1ccc(S(=O)(=O)NCCC=C2c3ccccc3CCc3ccccc32)cc1` [Example 71, N-(3-(10,11-dihydro-5H-dibenzo[a,d][7]annulen-5-ylidene)propyl)-4-cyanobenzenesulfonamide] it is 4.60.

As to `O=S(=O)(NCCC=C1c2ccccc2CCc2ccccc21)c1ccc(F)cc1` [Example 72, N-(3-(10,11-dihydro-5H-dibenzo[a,d][7]annulen-5-ylidene)propyl)-4-fluorobenzenesulfonamide], the pIC50 was 4.70. `O=S(=O)(NC1CCC(N2c3ccccc3CCc3ccccc32)C1)c1ccc(OC(F)(F)F)cc1` (stereo not shown) [Example 76, N-(3-(10,11-dihydro-5H-dibenzo[b,f]azepin-5-yl)cyclopentyl)-4-(trifluoromethoxy)benzenesulfonamide] showed a pIC50 of 4.70. On the same count and under the same terms, the figure for `O=S(=O)(NC1CCCC(=C2c3ccccc3CCc3ccccc32)C1)c1ccc(OC(F)(F)F)cc1` (stereo not shown) [Example 77, N-(3-(10,11-dihydro-5H-dibenzo[a,d][7]annulen-5-ylidene)cyclohexyl)-4-(trifluoromethoxy)benzenesulfonamide] is 4.82; for `O=S(=O)(NC1CCCC(=C2c3ccccc3CCc3ccccc32)C1)c1ccc(Cl)cc1` (stereo not shown) [Example 78, N-(3-(10,11-dihydro-5H-dibenzo[a,d][7]annulen-5-ylidene)cyclohexyl)-4-chlorobenzenesulfonamide] it is 4.82. On the same count and under the same terms, the figure for `O=S(=O)(NC1CCC(=C2c3ccccc3CCc3ccccc32)CC1)c1ccc(OC(F)(F)F)cc1` (stereo not shown) [Example 79, N-(4-(10,11-dihydro-5H-dibenzo[a,d][7]annulen-5-ylidene)cyclohexyl)-4-(trifluoromethoxy)benzenesulfonamide] is about 4.70; for `O=S(=O)(NC1CCC(=C2c3ccccc3CCc3ccccc32)CC1)c1ccc(Cl)cc1` (stereo not shown) [Example 80, N-(4-(10,11-dihydro-5H-dibenzo[a,d][7]annulen-5-ylidene)cyclohexyl)-4-chlorobenzenesulfonamide] it is about 4.70; for `O=S(=O)(NCC(O)CN1c2ccccc2Sc2ccccc21)c1ccc(OC(F)(F)F)cc1` (stereo not shown) [Example 84] it is about 4.60. In the case of `O=S(=O)(NCC(O)CN1c2ccccc2Sc2ccccc21)c1ccc(Cl)cc1` (stereo not shown) [Example 85], the pIC50 is about 4.82.

On to `CS(=O)(=O)Nc1ccc2c(c1)N(CCCNS(=O)(=O)c1ccc(OC(F)(F)F)cc1)c1ccccc1CC2` [Example 87], for which the pIC50 was about 4.82. Take `CC(=O)Nc1ccc(S(=O)(=O)NCCCN2c3ccccc3CCc3ccc(Cl)cc32)cc1` [Example 88]: the pIC50 was about 4.70.

The test system of another assay is A549luc cells. Put plainly: Colony formation (clonogenic) assay, A549luc. Type of assay: cell-based. The settings on record: 5 μM, 7 days. As for the experimental part:
(§1) Protocol for clonogenic assay follows Sangodkar et al. J Clin Invest 2012; 122:2637-51.
(§2) Cell culture and staining: For both A549luc and H292 cells, 500 cells were seeded into each well of a 6-well plate and allowed to attach for 24 hours before drug treatment. The following day, cells were treated with either the appropriate dose of drug or an equivalent volume of DMSO (two replicates were treated for each condition). For each condition, depleted media was replaced with fresh media containing the equivalent drug dose four days after initial treatment. Cells were harvested either 7 (A549luc) or 8 (H292) days after initial treatment. Briefly, media was aspirated from each well and the cells were washed twice with ice-cold PBS, then plates were allowed to dry at room temperature for 4 hours. Cells were fixed for one hour in a fixing solution consisting of 10% methanol and 10% glacial acetic acid in distilled water, then stained overnight in 1% (w/v) crystal violet dissolved in methanol. The next day, staining solution was aspirated from the wells and plates were washed gently with distilled water to remove excess stain before colony counting. Colonies were imaged on a ChemiDoc XRS+ (Bio-Rad) and images were exported as 8-bit TIFF files. Colonies were counted using the Colony Counter plugin in ImageJ, with colony size defined as between 4 and 400 square pixels, and minimum circularity set at 0.6. Duplicate wells were averaged to obtain a single value for each condition. Results (number of colonies) for A549luc cells are shown in Table 2 and results (number of colonies) for H292 cells are shown in Table 3: […]
`O=S(=O)(NC1CCCC(N2c3ccccc3CCc3ccccc32)C1)c1ccc(OC(F)(F)F)cc1` (stereo not shown) [Example 73, N-(3-(10,11-dihydro-5H-dibenzo[b,f]azepin-5-yl)cyclohexyl)-4-(trifluoromethoxy)benzenesulfonamide] yielded a number of colonies of 2.

The same assay, now with this note: 7.5 μM, 7 days.
Consider `O=S(=O)(NC1CCCC(N2c3ccccc3CCc3ccccc32)C1)c1ccc(OC(F)(F)F)cc1` (stereo not shown) [Example 73, N-(3-(10,11-dihydro-5H-dibenzo[b,f]azepin-5-yl)cyclohexyl)-4-(trifluoromethoxy)benzenesulfonamide], for which the number of colonies worked out at 0.

The same assay, now with this note: 10 μM, 7 days.
`O=S(=O)(NC1CCCC(N2c3ccccc3CCc3ccccc32)C1)c1ccc(OC(F)(F)F)cc1` (stereo not shown) [Example 73, N-(3-(10,11-dihydro-5H-dibenzo[b,f]azepin-5-yl)cyclohexyl)-4-(trifluoromethoxy)benzenesulfonamide] had a number of colonies of 0.

In the next assay the test system is H292 cells. Put plainly: Colony formation (clonogenic) assay, H292. The format is cell-based. The settings on record: 5 μM, 8 days. As for the experimental part:
as §1, §2
On to `O=S(=O)(NC1CCCC(N2c3ccccc3CCc3ccccc32)C1)c1ccc(OC(F)(F)F)cc1` (stereo not shown) [Example 73, N-(3-(10,11-dihydro-5H-dibenzo[b,f]azepin-5-yl)cyclohexyl)-4-(trifluoromethoxy)benzenesulfonamide], for which the number of colonies came out at 40.5.

Still in this assay, the particulars now being: 7.5 μM, 8 days.
For `O=S(=O)(NC1CCCC(N2c3ccccc3CCc3ccccc32)C1)c1ccc(OC(F)(F)F)cc1` (stereo not shown) [Example 73, N-(3-(10,11-dihydro-5H-dibenzo[b,f]azepin-5-yl)cyclohexyl)-4-(trifluoromethoxy)benzenesulfonamide], the number of colonies is listed as 16.5.

The assay is the same for the next values; noted with them: 10 μM, 8 days.
As for `O=S(=O)(NC1CCCC(N2c3ccccc3CCc3ccccc32)C1)c1ccc(OC(F)(F)F)cc1` (stereo not shown) [Example 73, N-(3-(10,11-dihydro-5H-dibenzo[b,f]azepin-5-yl)cyclohexyl)-4-(trifluoromethoxy)benzenesulfonamide], the number of colonies is 7.
